Bounds are passed on as bounds.

Experiment [1] has as its target T1, Protein O-GlcNAcase (Homo sapiens, UniProt O60502).
T1 sequence (O60502 whole entry): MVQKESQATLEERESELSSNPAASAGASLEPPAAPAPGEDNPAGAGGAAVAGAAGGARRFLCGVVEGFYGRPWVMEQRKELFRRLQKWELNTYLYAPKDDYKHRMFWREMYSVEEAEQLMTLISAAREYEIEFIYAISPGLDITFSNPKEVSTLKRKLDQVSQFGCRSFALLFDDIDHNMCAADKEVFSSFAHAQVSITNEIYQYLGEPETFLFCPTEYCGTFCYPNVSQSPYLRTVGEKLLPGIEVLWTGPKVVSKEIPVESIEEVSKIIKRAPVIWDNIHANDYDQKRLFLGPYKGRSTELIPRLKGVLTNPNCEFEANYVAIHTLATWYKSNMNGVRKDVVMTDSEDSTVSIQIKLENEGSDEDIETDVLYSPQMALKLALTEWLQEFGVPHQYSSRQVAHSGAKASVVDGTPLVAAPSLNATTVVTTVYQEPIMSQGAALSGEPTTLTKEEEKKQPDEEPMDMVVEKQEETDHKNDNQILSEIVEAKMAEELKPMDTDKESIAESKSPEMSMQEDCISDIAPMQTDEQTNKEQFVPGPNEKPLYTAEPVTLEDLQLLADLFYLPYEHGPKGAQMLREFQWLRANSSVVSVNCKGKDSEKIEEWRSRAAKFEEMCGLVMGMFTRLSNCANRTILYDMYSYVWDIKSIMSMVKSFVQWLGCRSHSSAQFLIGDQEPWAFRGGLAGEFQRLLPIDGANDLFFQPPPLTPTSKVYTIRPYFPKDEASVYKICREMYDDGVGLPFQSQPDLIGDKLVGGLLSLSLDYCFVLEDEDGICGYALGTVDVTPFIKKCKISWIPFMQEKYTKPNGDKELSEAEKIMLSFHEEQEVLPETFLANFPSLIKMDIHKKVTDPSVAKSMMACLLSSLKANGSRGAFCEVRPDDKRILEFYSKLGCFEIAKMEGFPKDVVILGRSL
In words: Inhibition of human His-tagged OGA using fluorescein mono-beta-D-([…]) glucopyranoside as substrate after 60 mins by fluorescence assay.

For experiment [2], the target named is T2, Protein O-GlcNAcase (Rattus norvegicus, UniProt Q8VIJ5).
T2 sequence (Q8VIJ5 whole entry): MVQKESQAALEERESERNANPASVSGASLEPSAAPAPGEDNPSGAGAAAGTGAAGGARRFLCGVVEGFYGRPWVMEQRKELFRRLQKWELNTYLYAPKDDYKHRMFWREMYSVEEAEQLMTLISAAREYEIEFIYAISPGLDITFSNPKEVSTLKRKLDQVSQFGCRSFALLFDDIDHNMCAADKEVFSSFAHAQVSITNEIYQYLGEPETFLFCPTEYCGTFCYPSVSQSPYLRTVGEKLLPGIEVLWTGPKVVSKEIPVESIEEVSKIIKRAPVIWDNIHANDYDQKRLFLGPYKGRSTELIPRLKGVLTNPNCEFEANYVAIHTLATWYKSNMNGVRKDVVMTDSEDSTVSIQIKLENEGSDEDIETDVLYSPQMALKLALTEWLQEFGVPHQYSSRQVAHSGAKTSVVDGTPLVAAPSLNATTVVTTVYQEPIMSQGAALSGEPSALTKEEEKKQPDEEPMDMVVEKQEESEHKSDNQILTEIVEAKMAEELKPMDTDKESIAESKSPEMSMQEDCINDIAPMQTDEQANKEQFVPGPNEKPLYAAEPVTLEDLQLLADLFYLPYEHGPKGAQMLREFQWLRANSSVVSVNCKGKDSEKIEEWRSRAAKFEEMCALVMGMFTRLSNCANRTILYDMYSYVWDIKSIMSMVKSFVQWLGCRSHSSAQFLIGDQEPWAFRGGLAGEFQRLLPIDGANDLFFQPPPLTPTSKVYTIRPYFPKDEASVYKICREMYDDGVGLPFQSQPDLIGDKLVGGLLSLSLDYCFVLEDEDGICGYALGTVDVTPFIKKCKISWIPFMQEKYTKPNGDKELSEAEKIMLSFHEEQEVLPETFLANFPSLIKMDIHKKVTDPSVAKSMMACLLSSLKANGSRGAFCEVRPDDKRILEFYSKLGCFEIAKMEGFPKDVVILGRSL
In words: Inhibition of OGA in rat B35 cells after 16 hrs. The format is cell-based.

In turn, `COC(=O)Nc1ncc(CN2CCC(c3ccccc3)CC2)s1` returned an IC50 on Protein O-GlcNAcase [1] of 1000 nM. On Protein O-GlcNAcase [2], this compound returned a 50% effective concentration (EC50) of 10000 nM.
In the case of `CC(=O)Nc1ncc(CN2CCC(c3ccccc3)CC2)s1`, the IC50 on Protein O-GlcNAcase [1] was under 200 nM. In addition, the EC50 on Protein O-GlcNAcase [2] was 200 nM.
For `CC(=O)Nc1ncc(CN2CCC(c3cccc(C)c3)CC2)s1`, in that order: under 200 nM and under 200 nM.
With `CC(=O)Nc1ncc(CN2CCC(F)(c3ccccc3)CC2)s1`, the half-maximal inhibitory concentration (IC50) on Protein O-GlcNAcase [1] worked out at 1000 nM. Besides, the EC50 at Protein O-GlcNAcase [2] came to 1000 nM.

As usually defined, the IC50 is the concentration needed to halve the response being measured. What is called EC50 is the concentration needed to bring the measured effect to its halfway point. Lower therefore signals a more potent agent.
